Converted amounts (≈) assume the structure as drawn. Like-named read-outs stand apart in the source and are kept apart here.
What was measured:
E. coli = experiment: MIC, Alamar blue assay; type: cell-based, E. coli (K-12); conditions: Escherichia coli; Table E2; ~90% cell death
B. subtilis (ATCC 6051) = experiment: MIC, Alamar blue assay; type: cell-based; conditions: Bacillus subtilis, ATCC6051
[1] = test system: MRSA, S. aureus (ATCC BAA-1762); experiment: MIC, Alamar blue assay; type: cell-based, methicillin-resistant S. aureus; conditions: Staphylococcus aureus
M. tuberculosis (H37Rv) = experiment: MIC, Alamar blue assay; type: cell-based; conditions: Mycobacterium tuberculosis
[2] = test system: B. subtilis, MRSA, M. tuberculosis and E. coli; experiment: Antibacterial activity and MK4 growth rescue, statements over all bacteria tested; type: cell-based; conditions: for increase in MIC values when complemented with exogenous menaquinone-4: B. subtilis, MRSA, M. tuberculosis
wild-type E. coli MenE = wild-type E. coli MenE (Escherichia coli, UniProt P37353); experiment: Direct fluorescent binding assay (intrinsic tryptophan fluorescence)
Procedure: Difluoroindandiol 109 was titrated into a solution of wild-type E. coli MenE and the change in fluorescence was measured using a Quanta Master fluorimeter at excitation and emission wavelengths of 280 and 332 nm, respectively. Data was analyzed using the Morrison equation.
Instead, to determine the Kd for 109, we used a direct binding assay in which the change in the intrinsic tryptophan fluorescence of ecMenE was monitored (see FIG. 14 for binding isotherm and data). […] The solution was stirred continuously, and fluorescence measurements were taken with a Quanta Master fluorimeter using excitation and emission wavelengths of 280 and 332 nm, respectively. Slit widths were optimized to 4 and 2 nm for excitation and emission, respectively. Data were corrected for the inner filter effect and then fit to the following equation using MATLAB: […]

E. coli MenE (ecMenE) = E. coli MenE (ecMenE) (Escherichia coli, UniProt P37353); experiment: MenE-MenB coupled assay (enzyme inhibition, catalytic parameters); conditions: read-out: E. coli MenE IC50; Table E6
Procedure: Measurements were performed in triplicate for each compound.
Analysis of the catalytic efficiency (kcat/KM) of the mutant enzymes compared to wild type MenE was performed using the MenE-MenB coupled assay described above.

[3] = test system: menaquinone levels in S. aureus ATCC BAA-1762 (MRSA); experiment: Menaquinone levels by LC-MS/MS after lipid extraction; type: cell-based; conditions: for decrease in menaquinone-8: MRSA, FIG. 9, two independent experiments
Excerpt: The 1959 Blight/Dyer lipid extraction protocol was followed. Menaquinone levels were quantified by LC-MS/MS using standard curves generated with MK4 and MK9. A distribution of MKs are present in untreated MRSA with MK8 most abundant.
Standard error shown for two independent experiments. *p≤0.05, **p≤0.01.
To provide direct insight into the mode of action of the MenE inhibitors, we analyzed the effect of OSB-AMS on menaquinone-levels in S. aureus by tandem MS (FIG. 2), as follows. Cultures of S. aureus ATCC BAA-1762 (5 mL in Synthetic Broth medium with 10% glucose) were incubated overnight in a 37° C. shaker in the presence or absence of OSB-AMS (15.6 μg/mL final concentration). The Blight and Dyer (1959) lipid extraction protocol was used to isolate the menaquinone-containing fraction from the cells.^(5) Briefly, 0.75 mL of 1:2 (v/v) CHCl3:MeOH was added to 0.2 mL of culture. The mixture was vortexed thoroughly, and 0.25 mL of CHCl3 was added followed by further vortexing after which 0.25 mL of H2O was added. The mixture was then vortexed and centrifuged at 1000 rpm for 5 minutes at room temperature. The bottom phase was recovered, transferred to a glass vial and 200 μL was analyzed by APCI LC-MS/MS in positive ion mode using a Thermo TSQ Quantum Access (Thermo-Fisher) Triple Quadrupole Mass Spectrometer. Menaquinone levels were quantified using standard established for MK4 and MK9. Samples were introduced into the mass spectrometer by flow injection at 100 μL/min with 2:1 MeOH/CHCL3 as the solvent. Multiple Reaction Monitoring (MRM) was performed at 30 eV. MK4, MK5 and MK6 were quantified using the standard curve for MK4 whereas MK7, MK8, and MK9 were quantified using MK9.

wild-type ecMenE = wild-type ecMenE (Escherichia coli, UniProt P37353)
Procedure: The direct binding of inhibitors to MenE was quantified using isothermal titration calorimetry (ITC). Measurements were made with a MicroCal VP-ITC instrument at 25° C. Inhibitor stock solutions (1 mM in NaHPO4 buffer pH 7.4 containing 150 mM NaCl and 1 mM MgCl2) were titrated in 4 μL increments into a 50 μM solution of MenE in pH 7.4 20 mM sodium phosphate buffer containing 150 mM sodium chloride and 1 mM magnesium chloride. The data were fit to a single binding site model with the Origin software package.

[4] = Table E2, ~90% cell death, read-out: B. subtilis MIC
[5] = Table E2, ~90% cell death, read-out: MRSA MIC
[6] = Table E2, ~90% cell death, read-out: M. tuberculosis MIC
[7] = Table E5, with addition of exogenous menaquinone-4 (10 μg/mL), read-out: B. subtilis MIC (in parentheses)
[8] = Table E5, without menaquinone-4, read-out: B. subtilis MIC
[9] = Table E5, with addition of exogenous menaquinone-4 (10 μg/mL), read-out: MRSA MIC (in parentheses)
[10] = Table E5, without menaquinone-4, read-out: MRSA MIC
[11] = Table E5, with addition of exogenous menaquinone-4 (10 μg/mL), read-out: M. tuberculosis MIC (in parentheses)
[12] = Table E5, without menaquinone-4, read-out: M. tuberculosis MIC

Chain of wild-type ecMenE (P37353 whole entry): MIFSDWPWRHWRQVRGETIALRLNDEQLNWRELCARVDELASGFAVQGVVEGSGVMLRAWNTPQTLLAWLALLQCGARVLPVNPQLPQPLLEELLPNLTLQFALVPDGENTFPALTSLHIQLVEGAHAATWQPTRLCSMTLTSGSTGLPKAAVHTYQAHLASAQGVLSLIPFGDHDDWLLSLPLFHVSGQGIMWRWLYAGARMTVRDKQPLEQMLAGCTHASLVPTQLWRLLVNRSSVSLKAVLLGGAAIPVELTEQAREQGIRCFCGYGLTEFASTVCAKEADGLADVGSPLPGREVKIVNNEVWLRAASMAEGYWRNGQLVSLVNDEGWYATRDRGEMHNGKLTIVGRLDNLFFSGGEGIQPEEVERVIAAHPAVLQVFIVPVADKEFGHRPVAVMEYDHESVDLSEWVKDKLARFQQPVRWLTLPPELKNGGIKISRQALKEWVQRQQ
Chain of E. coli MenE (ecMenE) (P37353 whole entry): as above
Chain of wild-type E. coli MenE (P37353 whole entry): as above

| Compound | MIC (E. coli) [µg/mL] | MIC (B. subtilis (ATCC 6051); [4]) [µg/mL] | MIC [1, 5] [µg/mL] | MIC (M. tuberculosis (H37Rv); [6]) [µg/mL] | pKa (physchem) | MIC (B. subtilis (ATCC 6051); [7]) [µg/mL] | MIC (B. subtilis (ATCC 6051); [8]) [µg/mL] | MIC [1, 9] [µg/mL] | MIC [1, 10] [µg/mL] | MIC (M. tuberculosis (H37Rv); [11]) [µg/mL] | MIC (M. tuberculosis (H37Rv); [12]) [µg/mL] | increase in MIC values when complemented with exogenous menaquinone-4 [2] | decrease in menaquinone-8 [3] | other results |
| --- | --- | --- | --- | --- | --- | --- | --- | --- | --- | --- | --- | --- | --- | --- |
| Nc1ncnc2c1ncn2[C@@H]1O[C@H](COS(=O)(=O)NC(=O)CCC(=O)c2ccccc2-c2c(O)c(=O)c2=O)[C@@H](O)[C@H]1O (stereo in doubt) [Compound 106] | > 500 | 250 (≈ 415 µM) | > 500 | > 500 | 1.3 | – | – | – | – | – | – | – | – | cellular activity against any bacteria tested [2]: did not show cellular activity |
| Nc1ncnc2c1ncn2[C@@H]1O[C@H](COS(=O)(=O)NC(=O)CC[C@]2(O)c3ccccc3[C@@H](O)C2(F)F)[C@@H](O)[C@H]1O [(1S,3R)-2, 5′-O—(N-[3″-((1S,3R)-2′″,2′″-difluoro-1′″,3′″-dihydroxy-1′″-indanyl)propanoyl]-sulfamoyl)adenosine] | – | – | – | – | – | 31.2 (≈ 53.2 µM) | 15.6 (≈ 26.6 µM) | 31.2 (≈ 53.2 µM) | 31.2 (≈ 53.2 µM) | 62.5 (≈ 107 µM) | 31.2 (≈ 53.2 µM) | – | – | rescue by exogenous menaquinone-4 ([2]; cultures complemented with exogenous menaquinone-4): Some rescue |
| Nc1ncnc2c1ncn2[C@@H]1O[C@H](COS(=O)(=O)NC(=O)CCC2(O)c3ccccc3C(O)C2(F)F)[C@@H](O)[C@H]1O (mixture of isomers) [Compound 109] | > 500 | 31.2 (≈ 53.3 µM) | 15.6 (≈ 26.6 µM) | 15.6 (≈ 26.6 µM) | 11.5 | – | – | – | – | – | – | – | – | Kd (wild-type E. coli MenE): 120 ± 23 nM |
| Nc1ncnc2c1ncn2[C@@H]1O[C@H](COS(=O)(=O)NC(=O)CC[C@@]2(O)c3ccccc3[C@H](O)C2(F)F)[C@@H](O)[C@H]1O [(1R,3S)-2, 5′-O—(N-[3″-((1R,3S)-2′″,2′″-difluoro-1′″,3′″-dihydroxy-1′″-indanyl)propanoyl]sulfamoyl)adenosine] | – | – | – | – | – | 31.2 (≈ 53.2 µM) | 15.6 (≈ 26.6 µM) | 31.2 (≈ 53.2 µM) | 15.6 (≈ 26.6 µM) | 62.5 (≈ 107 µM) | 15.6 (≈ 26.6 µM) | 2- to 4 fold | – | IC50 (E. coli MenE (ecMenE)): 5000 nM |
| Nc1ncnc2c1ncn2[C@@H]1O[C@H](COS(=O)(=O)NC(=O)CCC(=O)c2ccccc2C(=O)O)[C@@H](O)[C@H]1O [OSB-AMS, o-succinylbenzoate-adenenosinemonosulfamate, reference compound] | > 500 | 62.5 (≈ 114 µM) | 31.2 (≈ 56.8 µM) | 125 (≈ 227 µM) | 4 | – | – | – | – | – | – | – | 2.5 fold | decrease in the levels of the menaquinones ([3]; OSB-AMS 15.6 μg/mL, overnight, 37° C.): 3-5 fold; Kd (wild-type ecMenE): 44 ± 11 nM; ΔG (wild-type ecMenE; ITC, 25° C., pH 7.4): -10.0 kcal/mol; ΔH (wild-type ecMenE; ITC, 25° C., pH 7.4): -2.0 ± 0.1 kcal/mol |
| Nc1ncnc2c1ncn2[C@@H]1O[C@H](COS(=O)(=O)NC(=O)CCC2(O)c3ccccc3C(O)C2(F)F)[C@@H](O)[C@H]1O (mixture of isomers) [Compound 2] | – | – | – | – | – | 62.5 | 15.6 | 62.5 | 15.6 | 62.5 | 15.6 | four-fold increase | 31% | – |

From patent publication US20180273573A1, “INHIBITORS OF MENAQUINONE BIOSYNTHESIS” (Memorial Sloan-Kettering Cancer Center, priority 2015, published 2018)
